Assay results from patent US6127337A, “Bivalent thrombin inhibitors” (National Research Council of Canada, priority 1993, dated 2000).
Like-named read-outs stand apart in the source and are kept apart here. Blank lines part the entries; values can stand above or below the molecule they belong to.

What was measured:
human thrombin = molecular target: T1, human thrombin (Homo sapiens, UniProt P00734); assay: Inhibition of amidolytic activity of human thrombin (fluorogenic, Tos-Gly-Pro-Arg-AMC), Ki; assay type: biochemical
T1 construct: Human α-thrombin (3,000 NIH units/mg); purchased Sigma
Experimental: Materials. The chromogenic and fluorogenic substrates Tosyl-Gly-Pro-Arg-pNAand Tos-Gly-Pro-Arg-AMC were purchased from Boehringer Manheim and Sigma, respectively. […] Initial velocities were recorded at several inhibitor concentrations and kinetic parameters were determined by fitting the data to a general equation describing enzyme inhibition (Segel, 1975). The data were analyzed using the non-linear regression program RNLIN in the IMSL library (IMSL, 1987) on a microVAX™ 3500 computer. […] Fluorogenic assays were conducted using the same conditions and instrument as above operating in the fluorescence mode in the ratio (λex =383 nm, λem =455 nm) Fluorescence intensities were calibrated with 7-amino-4-methyl coumarin solution of known concentration
Determination of Thrombin Inhibitory Dissociation Constants KI
The steady-state velocity was then measured for a few minutes. The compounds of this invention were also pre-incubated with thrombin for 20 min at room temperature before adding the substrate. […] The kinetic data (the steady-state velocity at various concentrations of the substrate and the inhibitors) of the competitive inhibition was analyzed using the methods described by Segel (1975). A non-linear regression program, RNLIN in the IMSL library (IMSL, 1987), LMDER in MINPACK library (More et al., 1980) or Microsoft™ Excell™, was used to estimate the kinetic parameters (Km Vmax and Ki). The biological data are reported on tables I-V.

[1] = tested on: carotid injury-induced thrombosis; assay: FeCl3 induced arterial injury model (carotid injury-induced thrombosis); assay type: in vivo; details: rat; for Dose to double occlusion time: control occlusion time 19 ± 1 min; for Dose to achieve patency at 60 min.: patency defined by no drop in vessel temperature
Experimental: […]: Rat, male, Sprague-Dawley. Weight: 375-450 g The FeCl3 induced arterial injury model assays were conducted according to Kurz, K. D., Main, […]., Thrombosis research 60; 269-280, 1990 and Schumacher, W. A. et al. J. pharmacology and experimental therapeutics 267; 1237-1242, 1993. Male, Sprague-Dawley (375-450 g) are anesthetized with Urethane (1500 mg/kg IP). Animals are laid on a heating pad which is maintained at 37° C. The carotid artery is approached through a midline cervical incision. Carefully blunt dissection is used to expose and isolate the vessel from the carotid sheath. Using forceps, the artery is lifted to provide clearance to insert two small polyethylene tubing (PE-205) underneath it. The temperature probe (Physitemp MT23/3 )TM is placed between the PE-205 and the artery. The vessel temperature is monitored for 60 minutes after application of FeCl3. Vessel temperature changes are recorded on a thermister (Cole-Palmer Model 08533-41). Injury is induced by application of a small disc (3 mm dia.) of WhatmanTM No.1 filter paper previously dipped in a 35% solution of FeCl3 on the carotid artery above the temperature probe. The site of the experiment is covered with in Aluminum foil in order to protect the FeCl3 from degradation by light. […] Before the start of the experiment, one blood sample is drawn (1 ml) in a tube of 0.105M buffered citrate solution (from the eye's sinus) and the animal is exsanguinated at the end. All the samples are kept on ice and centrifuged as soon as possible at 2000 Rpm for 10 min., 4° C. The plasma is analyzed in duplicate for activated partial thromboplastin time on a haemostasis analyzer (STAGO ST4TM). From a group of four animals, two arteries are stored at -80C for further analysis.

[2] = Table III, various linker segments, human thrombin 3.0×10^-11 M, read-out: Ki
[3] = Table II, various active site inhibitor segments, human thrombin 3.0×10^-11 M, read-out: Ki
[4] = FIG. 1 Dixon plot, human α-thrombin 0.033 NIH unit/mL, pH 7.8, 25° C., read-out: Ki
[5] = Table IV, results from assay no. 1, read-out: Ki
[6] = Table IV, results from assay no. 2, read-out: Ki
[7] = Table IV, no assay number given, read-out: Ki

Ki (human thrombin; [2]): 6800 ± 1640 nM
Molecule: dansyl-Arg-(D-Pipecolic acid)-(4-aminobutyric acid)-glycyl)-Asp-Phe-Glu-Glu-Ile-Pro-Glu-Glu-Tyr-Leu-Gln-OH [Peptide P514]

Ki (human thrombin; [3]): 0.032 ± 0.001 nM
Molecule: α-naphthyl sulfonyl-Arg-(D-Pipecolic acid)-(12-aminododecanoic acid)-4-aminobutyric acid)-Asp-Phe-Glu-Glu-Ile-Pro-Glu-Glu-Tyr-Leu-Gln-OH [Peptide P531]
Dose to double occlusion time [1]: 0.5 mg/kg i.v. bolus
Dose to achieve patency at 60 min. [1]: > 2 mg/kg i.v. bolus

Ki (human thrombin; [3]): 5.85 ± 0.098 nM
Molecule: dansyl-Cha-(D-Pipecolic acid)-(12-aminododecanoic acid)-4-aminobutyric acid)-Asp-Phe-Glu-Glu-Ile-Pro-Glu-Glu-Tyr-Leu-Gln-OH [Peptide P477]

Ki (human thrombin; [3]): 54.9 ± 6.6 nM
Molecule: (D-Phe)-Arg-(D-Pipecolic acid)(12-aminododecanoic acid)-4-aminobutyric acid)-Asp-Phe-Glu-Glu-Ile-Pro-Glu-Glu-Tyr-Leu-Gln-OH [Peptide P483]

Ki (human thrombin; [7]): 0.003 ± 0.0004 nM
Molecule: 4-tert-butylbenzenesulfonyl-Arg-(D-pipecolic acid)-(12-aminododecanoic acid)-4-aminobutyric acid)-Asp-Tyr-Glu-Pro-Ile-Pro-Glu-Glu-Ala-(L-β-cyclohexylalanine)-(D- Glu)-OH [Peptide P553]
Dose to double occlusion time [1]: 0.25 mg/kg i.v. bolus
Dose to achieve patency at 60 min. [1]: 0.5-1 mg/kg i.v. bolus

Ki (human thrombin; [7]): 0.0145 ± 0.0009 nM
Molecule: α-naphthyl sulfonyl-arginyl D-pipecolic acid-(12-aminododecanoic acid)-4-aminobutyric acid)-Asp-Tyr-Glu-Pro-Ile-Pro-Glu-Glu-Ala-(L-β-cyclohexylalanine)-(D- Glu)-OH [Peptide P581]
Dose to double occlusion time [1]: 0.5 mg/kg i.v. bolus
Dose to achieve patency at 60 min. [1]: 1 mg/kg i.v. bolus

Ki (human thrombin; [3]): 14.8 ± 1.2 nM
Molecule: fmoc-Arg-(D-Pipecolic acid)(12-aminododecanoic acid)-4-aminobutyric acid)-Asp-Phe-Glu-Glu-Ile-Pro-Glu-Glu-Tyr-Leu-Gln-OH [Peptide P484]

Ki (human thrombin; [3]): 5.2 ± 1.31 nM
Molecule: dansyl-Nle-(D-Pipecolic acid)-(12-aminododecanoic acid)-4-aminobutyric acid)-Asp-Phe-Glu-Glu-Ile-Pro-Glu-Glu-Tyr-Leu-Gln-OH [Peptide P493]

The remaining lines, values behind:

Molecule: dansyl-Arg-(L-Pip)-(4-aminobutyric acid-glycyl)-Asp-Phe-Glu-Glu-Ile-Pro-Glu-Glu-Tyr-Leu-Gln-OH [Peptide P409]
Ki (human thrombin; Table III, various linker segments, human thrombin 3.0×10^-11 M): no inhibition

Molecule: dansyl-Arg-(D)1-amino cyclohexane carboxylic acid-(12-aminododecanoic acid)-4-aminobutyric acid)-Asp-Phe-Glu-Glu-Ile-Pro-Glu-Glu-Tyr-Leu-Gln-OH [Peptide P473]
Ki (human thrombin; [3]): 36.3 ± 10.3 nM

Molecule: 4-tert-Butyl-benzene sulfonyl-Arg-(D-Pipecolic acid)-(12-aminododecanoic acid)-4-aminobutyric acid)-Asp-Phe-Glu-Glu-Ile-Pro-Glu-Glu-Tyr-Leu-Gln-OH [Peptide P552]
Dose to double occlusion time [1]: 0.5 mg/kg i.v. bolus
Dose to achieve patency at 60 min. [1]: ≥ 2 mg/kg i.v. bolus

Molecule: dansyl-Arg-(L-pipecolic acid)-(12-aminododecanoic acid)-4-aminobutyric acid)-Asp-Phe-Glu-Glu-Ile-Pro-Glu-Glu-Tyr-Leu-Gln-OH [Peptide P447]
Ki (human thrombin; [3]): 12.4 ± 1.8 nM

Molecule: benzyl sulfonyl-Arg-(D-Pipecolic acid)-(12-aminododecanoic acid)-4-aminobutyric acid)-Asp-Phe-Glu-Glu-Ile-Pro-Glu-Glu-Tyr-Leu-Gln-OH [Peptide P556]
Ki (human thrombin; [3]): 0.137 ± 0.026 nM
Ki (human thrombin; read-out: Ki value): < 1 nM

Molecule: dansyl-Arg-1,2,3,4-tetrahydroisoquinoline-3-carboxylic acid-(12-aminododecanoic acid)-4-aminobutyric acid)-Asp-Phe-Glu-Glu-Ile-Pro-Glu-Glu-Tyr-Leu-Gln-OH (RXXXDFEEIPEEYLQ; dansyl-Arg-Tic-aminododecanoic-aminobutyric N-terminal extension) [Peptide P471]
Ki (human thrombin; [3]): 0.285 ± 0.04 nM

Molecule: CC[C@H](C)[C@H](NC(=O)[C@H](CCC(=O)O)NC(=O)[C@H](CCC(=O)O)NC(=O)[C@H](Cc1ccccc1)NC(=O)[C@H](CC(=O)O)NC(=O)CCCCNC(=O)CNC(=O)CNC(=O)CCNC(=O)[C@H]1CCCCN1C(=O)[C@H](CCCNC(=N)N)NS(=O)(=O)c1cccc2c(N(C)C)cccc12)C(=O)N1CCC[C@H]1C(=O)N[C@@H](CCC(=O)O)C(=O)N[C@@H](CCC(=O)O)C(=O)N[C@@H](Cc1ccc(O)cc1)C(=O)N[C@@H](CC(C)C)C(=O)N[C@@H](CCC(N)=O)C(=O)O [Peptide P498]
Ki (human thrombin; [4]): 0.131 ± 0.022 nM
Ki (human thrombin; read-out: Ki value): < 1 nM

Molecule: dansyl-(D-Arg)-(D-Pipecolic acid)-(12-aminododecanoic acid)-4-aminobutyric acid)-Asp-Phe-Glu-Glu-Ile-Pro-Glu-Glu-Tyr-Leu-Gln-OH [Peptide P492]
Ki (human thrombin; [3]): 1.02 ± 0.38 nM

Molecule: dansyl-Arg-(D-Pipecolic acid)-(8-aminocaproicacid)-4-aminobutyric acid)-Asp-Phe-Glu-Glu-Ile-Pro-Glu-Glu-Tyr-Leu-Gln-OH [Peptide P528]
Ki (human thrombin; [2]): 0.521 ± 0.086 nM
Ki (human thrombin; read-out: Ki value): < 1 nM

Molecule: β-naphthyl sulfonyl-Arg-(D-Pipecolic acid)-(12-aminododecanoic acid)-4-aminobutyric acid)-Asp-Phe-Glu-Glu-Ile-Pro-Glu-Glu-Tyr-Leu-Gln-OH [Peptide P532]
Dose to double occlusion time [1]: 0.5-1 mg/kg i.v. bolus
Dose to achieve patency at 60 min. [1]: 1-2 mg/kg i.v. bolus
Ki (human thrombin; [3]): 0.024 ± 0.004 nM

Molecule: dansyl-Arg-(D-pipecolic acid)-(12-aminododecanoic acid)-4-aminobutyric acid)-Asp-Tyr-Glu-Pro-Ile-Pro-Glu-Glu-Ala-(L-β-cyclohexylalanine)-(D- Glu)-OH [Peptide P535]
Ki (human thrombin; [5]): 0.00123 ± 0.00026 nM
Ki (human thrombin; [6]): 0.002 ± 0.0004 nM

Molecule: β-naphthyl sulfonyl-arginyl D-pipecolic acid-(12-aminododecanoic acid)-4-aminobutyric acid)-Asp-Tyr-Glu-Pro-Ile-Pro-Glu-Glu-Ala-(L-β-cyclohexylalanine)-(D- Glu)-OH [Peptide P551]
Dose to double occlusion time [1]: 0.5-1 mg/kg i.v. bolus
Dose to achieve patency at 60 min. [1]: 1-2 mg/kg i.v. bolus
Ki (human thrombin; [5]): 0.0033 ± 0.00016 nM
Ki (human thrombin; [6]): 0.0042 ± 0.0002 nM

Molecule: dansyl-Arg-(D-β-cyclohexylalanine)-(12-aminododecanoic acid)-4-aminobutyric acid)-Asp-Phe-Glu-Glu-Ile-Pro-Glu-Glu-Tyr-Leu-Gln-OH [Peptide P472]
Ki (human thrombin; [3]): 17.1 ± 3.1 nM

Molecule: dansyl-Arg-(D-pipecolic acid)-(12-aminododecanoic acid)-4-aminobutyric acid)-Asp-Phe-Glu-Glu-Ile-Pro-Glu-Glu-Tyr-Leu-Gln-OH [Peptide P448]
Dose to double occlusion time [1]: 1.0 mg/kg i.v. bolus
Dose to achieve patency at 60 min. [1]: > 2 mg/kg i.v. bolus
Ki (human thrombin; [4]): 0.017 ± 0.0042 nM

Molecule: dansyl-Phe-(D-Pipecolic acid)-(12-aminododecanoic acid)-4-aminobutyric acid)-Asp-Phe-Glu-Glu-Ile-Pro-Glu-Glu-Tyr-Leu-Gln-OH [Peptide P476]
Ki (human thrombin; [3]): 2.62 ± 0.2 nM

Molecule: dansyl-Arg-(D-Pipecolic acid)-(7-aminoheptanoic acid)-glycyl)-Asp-Phe-Glu-Glu-Ile-Pro-Glu-Glu-Tyr-Leu-Gln-OH (RXXGDFEEIPEEYLQ; dansyl, D-pipecolic acid, aminoheptanoic acid-glycyl linker) [Peptide P524]
Ki (human thrombin; [2]): 1480 ± 170 nM

Molecule: (D-β-cyclohexylalanine)-Arg-(D-Pipecolic acid)-(12-aminododecanoic acid)-4-aminobutyric acid)-Asp-Phe-Glu-Glu-Ile-Pro-Glu-Glu-Tyr-Leu-Gln-OH [Peptide P481]
Ki (human thrombin; [3]): 9.51 ± 0.16 nM
